PubChem BioAssay AID226 (DTP/NCI, 2004)
Where “and” joins values, the source holds several entries; their conditions need not be identical. Equal values may be shown once. Toxic doses and inconclusive results are not listed. Rule for the calls: active = survival T/C of 150% or more; inactive = T/C below 125% in these data.

Tested on: B6C3F1 mice, intracerebral ependymoblastoma, median survival T/C
Assay: NCI In Vivo Anticancer Drug Screen. Data for tumor model Ependymoblastoma (intracerebral) in B6C3F1 mice
Conditions: endpoint: median survival time, higher = longer survival
Procedure: The antitumor activity of compounds was measured in mice bearing transplantable tumors. Survival or tumor size were measured and the results are expressed as the measurement made in the treated group (T) divided by the measurement made in the vehicle treated control group (C). The tumor model used in this assay is Ependymoblastoma (intracerebral) in B6C3F1 mice

[1] = dose: 8.0 mg/kg/injection, schedule: Q01DX005 (ip), vehicle: saline
[2] = dose: 16.0 mg/kg/injection, schedule: Q01DX005 (ip), vehicle: saline
[3] = dose: 32.0 mg/kg/injection, schedule: Q01DX005 (ip), vehicle: saline

Measured: T/C

CCCCC(=O)OCC1OC(n2cnc3c(=S)nc[nH]c32)C(OC(=O)CCCC)C1OC(=O)CCCC (stereo unspecified)
inactive: dose: 25.0 mg/kg/injection, schedule: Q01DX005 (ip), vehicle: saline with Tween-80 116 % of control | dose: 50.0 mg/kg/injection, schedule: Q01DX005 (ip), vehicle: saline with Tween-80 99 % of control | dose: 100.0 mg/kg/injection, schedule: Q01DX005 (ip), vehicle: saline with Tween-80 103 % of control

CCCS(=O)CC1NC(=O)NC1=O (stereo unspecified)
inactive: dose: 9.38 mg/kg/injection, schedule: Q01DX005 (ip), vehicle: Klucel (hydroxypropylcellulose) (HPC) 101 % of control | dose: 18.75 mg/kg/injection, schedule: Q01DX005 (ip), vehicle: Klucel (hydroxypropylcellulose) (HPC) 98 % of control | dose: 37.5 mg/kg/injection, schedule: Q01DX005 (ip), vehicle: Klucel (hydroxypropylcellulose) (HPC) 109 % of control | dose: 75.0 mg/kg/injection, schedule: Q01DX005 (ip), vehicle: Klucel (hydroxypropylcellulose) (HPC) 106 % of control | dose: 150.0 mg/kg/injection, schedule: Q01DX005 (ip), vehicle: Klucel (hydroxypropylcellulose) (HPC) 98 % of control

COc1ccc2c(c1OC(C)=O)-c1cc(OC(C)=O)cc3c1C(C2)N(C(=O)CBr)CC3 (stereo unspecified)
inactive: dose: 25.0 mg/kg/injection, schedule: Q01DX005 (ip), vehicle: saline 96 % of control | dose: 50.0 mg/kg/injection, schedule: Q01DX005 (ip), vehicle: saline 91 % of control

CCCCCCC(=O)O[C@H]1CC[C@H]2[C@@H]3CCC4=CC(=O)CC[C@]4(C)[C@H]3CC[C@]12C
inactive: dose: 8.0 mg/kg/injection, schedule: Q01DX005 (ip), vehicle: Klucel (hydroxypropylcellulose) (HPC) 101 % of control and 110 % of control | dose: 16.0 mg/kg/injection, schedule: Q01DX005 (ip), vehicle: Klucel (hydroxypropylcellulose) (HPC) 92 % of control and 100 % of control | dose: 32.0 mg/kg/injection, schedule: Q01DX005 (ip), vehicle: Klucel (hydroxypropylcellulose) (HPC) 95 % of control and 110 % of control | dose: 64.0 mg/kg/injection, schedule: Q01DX005 (ip), vehicle: Klucel (hydroxypropylcellulose) (HPC) 108 % of control and 89 % of control | dose: 128.0 mg/kg/injection, schedule: Q01DX005 (ip), vehicle: Klucel (hydroxypropylcellulose) (HPC) 95 % of control and 96 % of control | dose: 256.0 mg/kg/injection, schedule: Q01DX005 (ip), vehicle: Klucel (hydroxypropylcellulose) (HPC) 97 % of control

O=C(NP(=O)(N1CC1)N1CC1)c1cc(I)ccc1I
inactive: [1] 104 % of control and 109 % of control | [2] 106 % of control and 124 % of control | dose: 16.0 mg/kg/injection, schedule: Q#A X004 (ip), vehicle: suspension in saline 101 % of control | dose: 16.0 mg/kg/injection, schedule: Q#A X006 (ip), vehicle: suspension in saline 113 % of control | dose: 32.0 mg/kg/injection, schedule: Q01DX001 (ip), vehicle: suspension in saline 101 % of control | [3] 112 % of control | dose: 32.0 mg/kg/injection, schedule: Q#A X004 (ip), vehicle: suspension in saline 117 % of control | dose: 32.0 mg/kg/injection, schedule: Q#A X006 (ip), vehicle: suspension in saline 117 % of control | dose: 64.0 mg/kg/injection, schedule: Q01DX001 (ip), vehicle: suspension in saline 117 % of control | dose: 64.0 mg/kg/injection, schedule: Q01DX001 (oral), vehicle: suspension in saline 103 % of control | dose: 64.0 mg/kg/injection, schedule: Q#A X004 (ip), vehicle: suspension in saline 117 % of control | dose: 64.0 mg/kg/injection, schedule: Q#A X006 (ip), vehicle: suspension in saline 122 % of control | dose: 128.0 mg/kg/injection, schedule: Q01DX001 (ip), vehicle: suspension in saline 103 % of control | dose: 128.0 mg/kg/injection, schedule: Q01DX001 (oral), vehicle: suspension in saline 106 % of control | dose: 128.0 mg/kg/injection, schedule: Q01DX005 (ip), vehicle: saline 116 % of control | dose: 128.0 mg/kg/injection, schedule: Q#A X004 (ip), vehicle: suspension in saline 111 % of control | dose: 256.0 mg/kg/injection, schedule: Q01DX001 (oral), vehicle: suspension in saline 113 % of control | dose: 512.0 mg/kg/injection, schedule: Q01DX001 (ip), vehicle: suspension in saline 112 % of control

COC1OC(CO)C(O)C(NC(=O)N(C)N=O)C1O (stereo unspecified)
inactive: dose: 0.5 mg/kg/injection, schedule: Q01DX005 (ip), vehicle: saline 101 % of control | dose: 1.0 mg/kg/injection, schedule: Q01DX005 (ip), vehicle: saline + alcohol 100 % of control | dose: 1.0 mg/kg/injection, schedule: Q01DX005 (ip), vehicle: saline 103 % of control | dose: 1.0 mg/kg/injection, schedule: Q## X004 (ip), vehicle: saline + alcohol 113 % of control | dose: 1.0 mg/kg/injection, schedule: Q## X006 (ip), vehicle: saline + alcohol 116 % of control | dose: 2.0 mg/kg/injection, schedule: Q01DX005 (ip), vehicle: saline + alcohol 109 % of control | dose: 2.0 mg/kg/injection, schedule: Q01DX005 (ip), vehicle: saline 119 % of control | dose: 2.0 mg/kg/injection, schedule: Q## X004 (ip), vehicle: saline + alcohol 115 % of control | dose: 2.0 mg/kg/injection, schedule: Q#A X002 (ip), vehicle: saline + alcohol 107 % of control | dose: 4.0 mg/kg/injection, schedule: Q01DX001 (ip), vehicle: saline + alcohol 94 % of control and 100 % of control and 110 % of control | dose: 4.0 mg/kg/injection, schedule: Q01DX005 (ip), vehicle: saline + alcohol 107 % of control | dose: 4.0 mg/kg/injection, schedule: Q01DX005 (ip), vehicle: saline 108 % of control | dose: 4.0 mg/kg/injection, schedule: Q01DX005 (oral), vehicle: saline + alcohol 115 % of control | dose: 4.0 mg/kg/injection, schedule: Q## X004 (ip), vehicle: saline + alcohol 118 % of control | dose: 4.0 mg/kg/injection, schedule: Q## X006 (ip), vehicle: saline + alcohol 113 % of control | dose: 4.0 mg/kg/injection, schedule: Q#A X002 (ip), vehicle: saline + alcohol 97 % of control | dose: 8.0 mg/kg/injection, schedule: Q01DX001 (ip), vehicle: saline + alcohol 97 % of control and 106 % of control and 113 % of control | [1] 103 % of control | dose: 8.0 mg/kg/injection, schedule: Q01DX005 (oral), vehicle: saline + alcohol 113 % of control | dose: 8.0 mg/kg/injection, schedule: Q## X004 (ip), vehicle: saline + alcohol 119 % of control | dose: 8.0 mg/kg/injection, schedule: Q## X006 (ip), vehicle: saline + alcohol 118 % of control | dose: 8.0 mg/kg/injection, schedule: Q#A X002 (ip), vehicle: saline + alcohol 95 % of control | dose: 16.0 mg/kg/injection, schedule: Q01DX001 (ip), vehicle: saline + alcohol 91 % of control and 112 % of control and 117 % of control | dose: 16.0 mg/kg/injection, schedule: Q01DX001 (oral), vehicle: saline + alcohol 95 % of control and 108 % of control and 113 % of control | dose: 16.0 mg/kg/injection, schedule: Q01DX005 (ip), vehicle: saline + alcohol 121 % of control | dose: 16.0 mg/kg/injection, schedule: Q01DX005 (oral), vehicle: saline + alcohol 101 % of control | dose: 16.0 mg/kg/injection, schedule: Q#A X002 (ip), vehicle: saline + alcohol 109 % of control | dose: 32.0 mg/kg/injection, schedule: Q01DX001 (ip), vehicle: saline + alcohol 100 % of control and 103 % of control and 108 % of control | dose: 32.0 mg/kg/injection, schedule: Q01DX001 (oral), vehicle: saline + alcohol 91 % of control and 95 % of control and 117 % of control | dose: 32.0 mg/kg/injection, schedule: Q01DX005 (oral), vehicle: saline + alcohol 101 % of control | dose: 32.0 mg/kg/injection, schedule: Q#A X002 (ip), vehicle: saline + alcohol 100 % of control | dose: 64.0 mg/kg/injection, schedule: Q01DX001 (ip), vehicle: saline + alcohol 103 % of control (2×) and 119 % of control | dose: 64.0 mg/kg/injection, schedule: Q01DX001 (oral), vehicle: saline + alcohol 106 % of control and 107 % of control and 109 % of control | dose: 128.0 mg/kg/injection, schedule: Q01DX001 (oral), vehicle: saline + alcohol 107 % of control and 112 % of control and 123 % of control | dose: 256.0 mg/kg/injection, schedule: Q01DX001 (oral), vehicle: saline + alcohol 107 % of control and 119 % of control

CCN(CC)CCOc1ccc(/C(=C(\Cl)c2ccccc2)c2ccccc2)cc1
inactive: [1] 101 % of control and 106 % of control | [2] 93 % of control and 100 % of control | [3] 92 % of control and 103 % of control | dose: 64.0 mg/kg/injection, schedule: Q01DX005 (ip), vehicle: saline 101 % of control and 104 % of control

CC1(C)OCC(CO)(Nc2nc(N3CC3)nc(N3CC3)n2)CO1
inactive: dose: 1.25 mg/kg/injection, schedule: Q01DX005 (ip), vehicle: suspension in saline 105 % of control | dose: 2.5 mg/kg/injection, schedule: Q01DX005 (ip), vehicle: suspension in saline 103 % of control | dose: 5.0 mg/kg/injection, schedule: Q01DX005 (ip), vehicle: suspension in saline 113 % of control
